US9592212B2, “Use of pan-PPAR agonists for treatment of tauopathies” (Cornell University, priority 2011, dated 2017)

Tests used:
R6/2 mice [1] = experiment: Survival of R6/2 mice (Kaplan-Meier); type: in vivo; settings: 0.5% bezafibrate diet
Method: (§1) All experiments were conducted within National Institutes of Health guidelines for animal research and were approved by the Weill Cornell Medical College Animal Care and Use Committee. The animals were kept on a 12-hr light/dark cycle, with food and water available ad libitum. Mice were fed standard diet containing 0.5% bezafibrate or standard diet (Purina-Mills Richmond, Ind., USA), starting right after weaning up to 3 months of age.
R6/2 mice normally die prematurely as compared to their wild-type littermates, between the age of 70-91 days (Mangiarini et al. 1996). Symptomatic mice approaching the disease endstage were examined twice daily (morning and late afternoon) to assess when they reached end-stage of the disease, as assessed by the righting reflex or failure to eat moistened chow placed beside mice over a 24 hour period. At this point, mice were euthanized by CO2 inhalation. This day was recorded as time of death of the mice. […] In our hands, the R6/2 mice survived to 77-88 days of age, and the longest living mouse died at 90 days of age (mean=84+1.2 days). Bezafibrate treated R6/2 mice lived 20% longer than the R6/2 mice on a standard diet (mean=102+3.2 days) (FIG. 2D).

[2] = used in man for more than 25 years; cited from earlier work
R6/2 mice [3] = experiment: Behavioral tests (grip strength, open field, rotarod) in R6/2 mice; type: in vivo; settings: 0.5% bezafibrate diet
Method: as §1
Experimenters were blind to the genotype during all testing, at least until the appearance of a robust behavioral phenotype in the mutants. We utilized a behavioral testing battery consisting of: rotarod, grip strength and open field. […] The latency to fall from the rod was recorded. Exploratory behavior was recorded in the open-field (45 cm×45 cm; height: 20 cm), for 10 min per day using a video tracking system (Ethovision 3.0, Noldus Technology, Attleborough, Mass., USA) and averaged over 3 days. […]
To assess muscle strength we tested the R6/2 mice and their wild-type littermates on the grip strength test (FIG. 2A). […] Motor coordination was assessed by performance on an accelerated rotarod apparatus. Latency to fall was recorded for 3 trials per weekly assessment and scores were averaged (FIG. 2C).

P301S mice = experiment: Mitochondria characterisation in brains of P301S and wild-type mice; type: in vivo
Source text: Animals were generated by breeding P301S transgenic male mice with wild-type female mice obtained from Jackson Laboratory (Bar Harbor, Me., USA). Offspring were genotyped by PCR of tail DNA. P301S transgenic mice and their wild-type littermates were randomly assigned to receive either control diet (LabDiet 5002) or 0.5% bezafibrate diet (Sigma, St. Louis, Mo., USA) from 1 to 10 months of age ad libitum. The chow was pelleted by Purina-Mills (Richmond, Ind., USA). Behavioral analyses were performed at 5, 7, and 9 months of age. Histopathological and biochemical analyses were conducted at 10 months of age on the same animals. All experiments were approved by the Weill Cornell Medical College Institutional Animal Care and Use Committee.
Dissected, non-perfused frontal lobe samples (˜30-55 mg) were stored frozen at ? 80° C. until assaying. Before assays, tissue samples were thawed on ice and homogenized with Dounce-type 2 ml homogenizer (glass vessel/glass pestle). […]
The protein lysates containing equal amounts of protein were separated by SDS-PAGE, electroblotted onto a nitrocellulose membrane (BioRad, Hercules, Calif., USA), and immunoreacted with an appropriate primary antibody (see below) followed by HRP-conjugated secondary antibody (Kierkegaard Perry Labs Inc., Gaithersburg, Md., USA). […] Quantitative analysis was performed using NIH “ImageJ” software. […]

N171-82Q mice = settings: cited from earlier work

Row | Structure (SMILES) | increase in survival vs R6/2 mice on standard diet (R6/2 mice [1]) [%] | mean survival (R6/2 mice [1]; standard diet mean=84+1.2 days) | tolerability in man [2] | increase in grip strength compared to untreated R6/2 mice (R6/2 mice [3]) | mitochondrial enzymes and PGC1α in brain (P301S mice) | increase in survival (N171-82Q mice) [%]
1 | CC(C)(Oc1ccc(CCNC(=O)c2ccc(Cl)cc2)cc1)C(=O)O [bezafibrate] | 20 | 102+3.2 days | well-tolerated with few side effects | up to 2 fold | no effect | –
2 | CN(CC(=O)O)C(=N)N [creatine] | – | – | – | – | – | 19
